From patent publication US20240279220A1, “INDOLE COMPOUNDS AND METHODS OF USE” (Genzyme Corporation, priority 2021, published 2024) come the findings set out here.

Each structure is given as a SMILES string.

This test has as its system NBD1/3D. The test can be described thus: Aggregation analysis using differential static light scattering (DSLS), NBD1 thermal stability. The class given is binding, Human. To be noted: ΔTagg versus DMSO control; compound at 100 μM. The method in brief: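 Thermal stabilisation reported as ΔTagg, i.e. aggregation temperature relative to averaged DMSO wells. Tagg came from the inflection of differential static light scattering imaged 25–70 °C while NBD1 (0.2 mg/ml, Tris pH 7.6 buffer containing ATP, MgCl2, DTT, glycerol) was ramped 1 °C/min.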

As to `CC(Cc1cccc(C(C)c2cnc(-c3cc(Oc4c(F)cc5[nH]ccc5c4F)ccc3F)[nH]2)c1F)C(=O)O` (single isomer, unassigned) [Example 137B, 3-(3-(1-(2-(5-((4,6-difluoro-1H-indol-5-yl)oxy)-2-fluorophenyl)-1H-imidazol-5-yl)ethyl)-2-fluorophenyl)-2-methylpropanoic acid], the “DSLS NBD1/3D Human Stability delta-T (° C.) @ 100 (μM)” value (“DSLS NBD1/3D Human Stability delta-T” for short) is “B (B: 5-10° C.)”. To `Cc1c(Oc2ccc(F)c(-c3ncc(C4(c5cccc(CCC(=O)O)c5)CCOC4)[nH]3)c2)c(F)cc2[nH]ccc12` (stereo not shown) [Example 153, 3-(3-(3-(2-(2-fluoro-5-((6-fluoro-4-methyl-1H-indol-5-yl)oxy)phenyl)-1H-imidazol-5-yl)tetrahydrofuran-3-yl)phenyl)propanoic acid] belongs “A (A: T ≥ 10° C.)”. To `CC(O)(c1cccc(CCC(=O)O)c1)c1c[nH]c(-c2cc(Oc3c(F)cc4[nH]ccc4c3CC(F)F)ccc2F)n1` (stereo not shown) [Example 188, 3-(3-(1-(2-(5-((4-(2,2-difluoroethyl)-6-fluoro-1H-indol-5-yl)oxy)-2-fluorophenyl)-1H-imidazol-4-yl)-1-hydroxyethyl)phenyl) propanoic acid] belongs “B (B: 5-10° C.)”; to `CS(=O)(=O)c1c(Oc2ccc(F)c(-c3nc(Cc4cccc(CCC(=O)O)c4)cs3)c2)c(F)cc2[nH]ccc12` [Example 93, 3-(3-((2-(2-fluoro-5-((6-fluoro-4-(methylsulfonyl)-1H-indol-5-yl)oxy)phenyl)thiazol-4-yl)methyl)phenyl)propanoic acid], “B (B: 5-10° C.)”; to `CC(c1cccc(CCC(=O)O)c1)n1ccc(-c2cc(Oc3c(F)cc4[nH]ccc4c3S(C)(=O)=O)ccc2F)n1` (stereo not shown) [Example 38, 3-(3-(1-(3-(2-Fluoro-5-((6-fluoro-4-(methylsulfonyl)-1H-indol-5-yl)oxy)phenyl)-1H-pyrazol-1-yl)ethyl)phenyl)propanoic acid], “B (B: 5-10° C.)”. The same measure for `Cc1c(Oc2ccc(F)c(-c3ncc(Cc4cc(F)cc(CCC(=O)O)c4)[nH]3)c2)ccc2[nH]ccc12` [Example 106, 3-(3-fluoro-5-((2-(2-fluoro-5-((4-methyl-1H-indol-5-yl)oxy)phenyl)-1H-imidazol-5-yl)methyl)phenyl)propanoic acid]: “B (B: 5-10° C.)”; for `O=C(O)CCc1cccc(Cc2cnc(-c3cc(Oc4c(F)cc5[nH]ccc5c4F)ccc3F)[nH]2)c1Cl` [Example 110, 3-(2-chloro-3-((2-(5-((4,6-difluoro-1H-indol-5-yl)oxy)-2-fluorophenyl)-1H-imidazol-5-yl)methyl)phenyl)propanoic acid]: “B (B: 5-10° C.)”.

As to `O=C(O)CCc1cccc(C2(c3csc(-c4cc(Oc5c(F)cc6[nH]ccc6c5F)ccc4F)n3)CC(F)(F)C2)c1` [Example 94, 3-(3-(1-(2-(5-((4,6-difluoro-1H-indol-5-yl)oxy)-2-fluorophenyl)thiazol-4-yl)-3,3-difluorocyclobutyl)phenyl)propanoic acid], the “DSLS NBD1/3D Human Stability delta-T” value is “B (B: 5-10° C.)”. To `O=C(O)CCc1cccc(Cc2cnc(-c3cc(Oc4c(F)cc5[nH]ccc5c4F)ccc3F)[nH]2)c1F` [Example 100, 3-(3-((2-(5-((4,6-Difluoro-1H-indol-5-yl)oxy)-2-fluorophenyl)-1H-imidazol-5-yl)methyl)-2-fluorophenyl)propanoic acid] belongs “B (B: 5-10° C.)”; to `CC(O)(c1cccc(CCC(=O)O)c1)c1cnc(-c2cc(Oc3c(F)cc4[nH]ccc4c3F)ccc2F)[nH]1` (single isomer, unassigned) [Example 216B, 3-(3-(1-(2-(5-((4,6-difluoro-1H-indol-5-yl)oxy)-2-fluorophenyl)-1H-imidazol-5-yl)-1-hydroxyethyl)phenyl) propanoic acid], “A (A: T ≥ 10° C.)”; to `O=C(O)CCc1cccc(Cc2c[nH]c(-c3cc(Oc4c(F)cc5[nH]ccc5c4CC(F)F)ccc3F)n2)c1` [Example 117, 3-(3-((2-(5-((4-(2,2-difluoroethyl)-6-fluoro-1H-indol-5-yl)oxy)-2-fluorophenyl)-1H-imidazol-4-yl)methyl)phenyl)propanoic acid], “B (B: 5-10° C.)”.

Regarding `Cc1c(Oc2ccc(F)c(-c3nc(C4(c5cccc(CCC(=O)O)c5)CCOC(C)C4)c[nH]3)c2)c(F)cc2[nH]ccc12` (single isomer, unassigned) [Example 154, 3-(3-(4-(2-(2-fluoro-5-((6-fluoro-4-methyl-1H-indol-5-yl)oxy)phenyl)-1H-imidazol-4-yl)-2-methyltetrahydro-2H-pyran-4-yl)phenyl)propanoic acid], the “DSLS NBD1/3D Human Stability delta-T” value is given as “A (A: T ≥ 10° C.)”. To `NC(=O)CCc1cccc(Cc2c[nH]c(-c3cc(Oc4c(F)cc5[nH]ccc5c4F)ccc3F)n2)c1` [Example 127, 3-(3-((2-(5-((4,6-Difluoro-1H-indol-5-yl)oxy)-2-fluorophenyl)-1H-imidazol-4-yl)methyl)phenyl)propanamide] belongs “C (C: ≤5° C.)”; to `Cc1c(Oc2cccc(-c3nnc(Cc4cccc([C@@H]5C[C@H]5C(=O)O)c4)[nH]3)c2)ccc2[nH]ccc12` (racemic) [Example 243, rac-(1R,2R)-2-(3-((5-(3-((4-Methyl-1H-indol-5-yl)oxy)phenyl)-4H-1,2,4-triazol-3-yl)methyl)phenyl)cyclopropane-1-carboxylic acid], “B (B: 5-10° C.)”; to `N#Cc1c(CCC(=O)O)cccc1Cc1cnc(-c2cc(Oc3c(F)cc4[nH]ccc4c3F)ccc2F)[nH]1` [Example 122, 3-(2-cyano-3-((2-(5-((4,6-difluoro-1H-indol-5-yl)oxy)-2-fluorophenyl)-1H-imidazol-5-yl)methyl)phenyl)propanoic acid], “B (B: 5-10° C.)”. To `Cc1c(Oc2ccc(F)c(-c3ncc(C(C)(O)c4cccc(CCC(=O)O)c4)[nH]3)c2)c(F)cc2[nH]ccc12` (stereo not shown) [Example 186, 3-(3-(1-(2-(2-fluoro-5-((6-fluoro-4-methyl-1H-indol-5-yl)oxy)phenyl)-1H-imidazol-5-yl)-1-hydroxyethyl)phenyl) propanoic acid] belongs “B (B: 5-10° C.)”.

Turning to `Cc1c(Oc2ccc(F)c(-c3nc(C(C)(O)c4cc(F)cc(CCC(=O)O)c4)c[nH]3)c2)c(F)cc2[nH]ccc12` (stereo not shown) [Example 192, 3-(3-fluoro-5-(1-(2-(2-fluoro-5-((6-fluoro-4-methyl-1H-indol-5-yl)oxy)phenyl)-1H-imidazol-4-yl)-1-hydroxyethyl)phenyl) propanoic acid], the “DSLS NBD1/3D Human Stability delta-T” value is listed as “B (B: 5-10° C.)”. `Cc1c(Oc2cccc(-c3ccn(Cc4cccc(CC(=O)O)c4)n3)c2)ccc2[nH]ccc12` [Example 5, 2-(3-((3-(3-((4-methyl-1H-indol-5-yl)oxy)phenyl)-1H-pyrazol-1-yl)methyl)phenyl)acetic acid]: the “DSLS NBD1/3D Human Stability delta-T” value was “B (B: 5-10° C.)”. Consider `Cc1c(Oc2ccc(F)c(-c3nnc(Cc4ccc5c(c4)CC(C(=O)O)C5)[nH]3)c2)c(F)cc2[nH]ccc12` (stereo not shown) [Example 245, 5-((5-(2-Fluoro-5-((6-fluoro-4-methyl-1H-indol-5-yl)oxy)phenyl)-4H-1,2,4-triazol-3-yl)methyl)-2,3-dihydro-1H-indene-2-carboxylic acid], for which the “DSLS NBD1/3D Human Stability delta-T” value was “C (C: ≤5° C.)”. As to `COCCOC(c1cccc(CCC(=O)O)c1)c1cnc(-c2cc(Oc3c(F)cc4[nH]ccc4c3C)ccc2F)[nH]1` (stereo not shown) [Example 236, 3-(3-((2-(2-fluoro-5-((6-fluoro-4-methyl-1H-indol-5-yl)oxy)phenyl)-1H-imidazol-5-yl)(2-methoxyethoxy)methyl)phenyl) propanoic acid], the “DSLS NBD1/3D Human Stability delta-T” value is on record as “B (B: 5-10° C.)”. To `Cc1c(Oc2ccc(F)c(-c3ccn(Cc4cnc(CCC(=O)O)s4)n3)c2)c(F)cc2[nH]ccc12` [Example 18, 3-(5-((3-(2-Fluoro-5-((6-fluoro-4-methyl-1H-indol-5-yl)oxy)phenyl)-1H-pyrazol-1-yl)methyl)thiazol-2-yl)propanoic acid] belongs “C (C: ≤5° C.)”. As to `Cc1c(Oc2ccc(F)c(-c3ncc(C(C)c4cccc([C@@H]5C[C@@H]5C(=O)O)c4F)[nH]3)c2)c(F)cc2[nH]ccc12` (single isomer, unassigned) [Example 138A, cis-2-(2-fluoro-3-(1-(2-(2-fluoro-5-((6-fluoro-4-methyl-1H-indol-5-yl)oxy)phenyl)-1H-imidazol-5-yl)ethyl)phenyl)cyclopropane-1-carboxylic acid], the “DSLS NBD1/3D Human Stability delta-T” value was “C (C: ≤5° C.)”. To `CC(C)OCCOCCC(c1cnc(-c2cc(Oc3c(F)cc4[nH]ccc4c3F)ccc2F)[nH]1)c1cccc(CCC(=O)O)c1F` (single isomer, unassigned) [Example 130A, 3-(3-(1-(2-(5-((4,6-difluoro-1H-indol-5-yl)oxy)-2-fluorophenyl)-1H-imidazol-5-yl)-3-(2-isopropoxyethoxy)propyl)-2-fluorophenyl)propanoic acid] belongs “C (C: ≤5° C.)”; to `O=C(O)CCc1cccc(Cc2nnc(-c3cc(Oc4c(F)cc5[nH]ccc5c4Cl)ccc3F)[nH]2)c1` [Example 239, 3-(3-((5-(5-((4-chloro-6-fluoro-1H-indol-5-yl)oxy)-2-fluorophenyl)-4H-1,2,4-triazol-3-yl)methyl)phenyl) propanoic acid], “C (C: ≤5° C.)”; to `CCS(=O)(=O)c1c(Oc2ccc(F)c(-c3ncc(C(C)(O)c4cccc(CCC(=O)O)c4)[nH]3)c2)c(F)cc2[nH]ccc12` (stereo not shown) [Example 27, 3-(3-(1-(2-(5-((4-(ethylsulfonyl)-6-fluoro-1H-indol-5-yl)oxy)-2-fluorophenyl)-1H-imidazol-5-yl)-1-hydroxyethyl)phenyl)propanoic acid], “B (B: 5-10° C.)”.
